Experimental data as given in publication PMC8343220, “The selectivity of α‐adrenoceptor agonists for the human α1A, α1B, and α1D‐adrenoceptors” (Pharmacology Research & Perspectives, 2021).

How the values were obtained:
human α1A‐adrenoceptor [1] = target: T1, human α1A‐adrenoceptor (Homo sapiens, UniProt P35348); assay: ^3H‐cAMP accumulation, CHO‐α1A cells; assay type: cell-based; conditions: CHO‐α1A cells; for cAMP accumulation Log EC50: 5 h; for cAMP accumulation % forskolin: % of 10 µM forskolin response
T1 construct: expressed in transfected cells; host or cells: CHO-K1
T1 sequence (P35348 1-466): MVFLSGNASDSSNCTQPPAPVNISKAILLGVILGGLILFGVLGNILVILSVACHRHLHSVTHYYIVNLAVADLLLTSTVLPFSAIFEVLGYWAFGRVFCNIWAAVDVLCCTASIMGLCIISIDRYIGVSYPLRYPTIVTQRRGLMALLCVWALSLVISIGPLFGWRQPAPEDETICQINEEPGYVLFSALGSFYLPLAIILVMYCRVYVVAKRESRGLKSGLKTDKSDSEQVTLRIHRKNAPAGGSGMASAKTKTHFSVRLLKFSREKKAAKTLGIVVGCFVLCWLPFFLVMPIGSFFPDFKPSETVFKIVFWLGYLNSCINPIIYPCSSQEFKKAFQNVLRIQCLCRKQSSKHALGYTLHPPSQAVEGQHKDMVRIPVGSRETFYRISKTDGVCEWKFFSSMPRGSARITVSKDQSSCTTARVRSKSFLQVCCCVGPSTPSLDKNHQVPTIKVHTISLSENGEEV

human α1B‐adrenoceptor [2] = target: T2, human α1B‐adrenoceptor (Homo sapiens, UniProt P35368); assay: Intracellular free calcium mobilization, CHO‐α1B cells; assay type: cell-based; conditions: CHO‐α1B cells; for Intracellular calcium release % Ionomycin at 100 µM: response at 100 µM ligand (no EC50 given), % of ionomycin response
T2 construct: expressed in transfected cells; host or cells: CHO-K1
T2 sequence (P35368 1-520): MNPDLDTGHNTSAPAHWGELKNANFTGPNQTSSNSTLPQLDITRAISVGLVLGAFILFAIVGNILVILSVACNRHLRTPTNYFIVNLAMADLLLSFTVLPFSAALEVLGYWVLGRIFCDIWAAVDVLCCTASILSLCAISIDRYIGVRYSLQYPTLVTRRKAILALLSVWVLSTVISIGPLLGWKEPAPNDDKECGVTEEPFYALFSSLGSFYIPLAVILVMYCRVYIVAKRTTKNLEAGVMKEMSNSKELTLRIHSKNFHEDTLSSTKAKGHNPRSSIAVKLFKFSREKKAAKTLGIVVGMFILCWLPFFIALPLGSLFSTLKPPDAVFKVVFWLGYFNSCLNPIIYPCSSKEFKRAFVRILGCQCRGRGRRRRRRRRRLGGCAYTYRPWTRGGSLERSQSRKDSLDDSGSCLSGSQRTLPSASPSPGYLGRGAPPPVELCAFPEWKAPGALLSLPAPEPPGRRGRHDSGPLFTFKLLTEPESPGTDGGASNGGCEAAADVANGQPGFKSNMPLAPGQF

[3] = target: T3, human α1D‐adrenoceptor (full length) (Homo sapiens, UniProt P25100); conditions: CHO‐α1D cells; ligands marked ^a; ref Proudman et al., 2020; cited from earlier work
T3 construct: human α1D‐adrenoceptor (full length) were used; expressed in transfected cells; host or cells: CHO-K1
T3 sequence (P25100 1-572): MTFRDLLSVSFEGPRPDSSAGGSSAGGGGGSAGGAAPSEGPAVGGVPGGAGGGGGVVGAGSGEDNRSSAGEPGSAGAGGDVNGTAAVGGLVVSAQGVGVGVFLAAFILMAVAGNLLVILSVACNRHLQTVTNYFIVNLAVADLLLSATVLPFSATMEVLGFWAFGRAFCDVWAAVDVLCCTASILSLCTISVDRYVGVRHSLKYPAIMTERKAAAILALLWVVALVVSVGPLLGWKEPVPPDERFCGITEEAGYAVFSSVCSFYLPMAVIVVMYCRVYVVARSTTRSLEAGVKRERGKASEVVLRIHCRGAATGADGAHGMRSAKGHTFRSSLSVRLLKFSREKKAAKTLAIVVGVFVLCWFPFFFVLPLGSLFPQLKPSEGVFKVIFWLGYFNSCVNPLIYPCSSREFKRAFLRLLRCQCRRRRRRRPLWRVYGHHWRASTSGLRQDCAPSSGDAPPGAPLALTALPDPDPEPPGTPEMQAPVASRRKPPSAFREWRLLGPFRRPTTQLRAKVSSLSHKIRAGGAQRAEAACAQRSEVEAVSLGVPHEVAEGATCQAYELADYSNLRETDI

[4] = target: T3, human α1D‐adrenoceptor (full length); assay: ERK1/2‐phosphorylation (Surefire Alphascreen), CHO‐α1D cells; assay type: cell-based; conditions: CHO‐α1D cells; for ERK1/2‐phosphorylation % PDBu: maximal response as % of PDBu
[5] = target: T3, human α1D‐adrenoceptor (full length); assay: Intracellular free calcium mobilization, CHO‐α1D cells; assay type: cell-based; conditions: CHO‐α1D cells; for Intracellular calcium release % ionomycin: maximal response as % of 10 µM ionomycin
human α1A‐adrenoceptor [6] = target: T1, human α1A‐adrenoceptor; assay: ERK1/2‐phosphorylation (Surefire Alphascreen), CHO‐α1A cells; assay type: cell-based; conditions: CHO‐α1A cells, ^a bi‐phasic: initial stimulatory part; for ERK1/2‐phosphorylation % PDBu: % of 10 µM PDBu
human α1B‐adrenoceptor [7] = target: T2, human α1B‐adrenoceptor; conditions: CHO‐α1B cells; given as log KD (negative); ligands marked ^a; ref Proudman et al., 2020; cited from earlier work
human α1B‐adrenoceptor [8] = target: T2, human α1B‐adrenoceptor; assay: ERK1/2‐phosphorylation (Surefire Alphascreen), CHO‐α1B cells; assay type: cell-based; conditions: CHO‐α1B cells; for ERK1/2‐phosphorylation % PDBu: maximal response as % PDBu response, for bi‐phasic responses the initial stimulatory part
human α1A‐adrenoceptor [9] = target: T1, human α1A‐adrenoceptor; assay: ^3H‐cAMP accumulation in the presence of 10 μM forskolin, CHO‐α1A cells; assay type: cell-based; conditions: CHO‐α1A cells; for cAMP accumulation (in presence of forskolin) Log EC50: 10 μM forskolin
human α1A‐adrenoceptor [10] = target: T1, human α1A‐adrenoceptor; conditions: CHO‐α1A cells; given as log KD (negative); ligands marked ^a; ref Proudman et al., 2020; cited from earlier work
human α1A‐adrenoceptor [11] = target: T1, human α1A‐adrenoceptor; assay: Intracellular free calcium mobilization, CHO‐α1A cells; assay type: cell-based; conditions: CHO‐α1A cells; for Intracellular calcium release Log EC50: given as log EC50 (negative); for Intracellular calcium release % ionomycin: maximal response as % of 10 µM ionomycin
[12] = system: parental CHO cell line without any transfected receptors; assay: ERK1/2‐phosphorylation, parent CHO cells without transfected receptors; assay type: cell-based, Chinese hamster; conditions: CHO cells without transfected receptors
[13] = system: parental CHO cell line without any transfected receptors; assay: Forskolin‐stimulated cAMP accumulation, parent CHO cells without transfected receptors; assay type: cell-based, Chinese hamster; conditions: CHO cells without transfected receptors
human α1A‐adrenoceptor [14] = target: T1, human α1A‐adrenoceptor; assay: ^3H‐prazosin whole‐cell radioligand binding, CHO‐α1A cells; conditions: higher affinity for α1A than α1B
[15] = target: T3, human α1D‐adrenoceptor (full length); assay: ^3H‐prazosin whole‐cell radioligand binding, CHO‐α1D cells
[16] = response at 100 µM ligand (no EC50 given)

Structure (SMILES) | cAMP accumulation Log EC50 (human α1A‐adrenoceptor [1]) | cAMP accumulation % forskolin (human α1A‐adrenoceptor [1]) | Intracellular calcium release % Ionomycin at 100 µM (human α1B‐adrenoceptor [2]) | % site 1 (% of the response at the first component), α1D two‐component binding curve [3] | ERK1/2‐phosphorylation % PDBu [4] | Intracellular calcium release % ionomycin [5] | ERK1/2‐phosphorylation % PDBu (human α1A‐adrenoceptor [6]) | Log KD α1B, ^3H‐prazosin whole cell binding (human α1B‐adrenoceptor [7]) | ERK1/2‐phosphorylation % PDBu (human α1B‐adrenoceptor [8]) | cAMP accumulation (in presence of forskolin) Log EC50 (human α1A‐adrenoceptor [9]) | Log KD α1A, ^3H‐prazosin whole cell binding (human α1A‐adrenoceptor [10]) | Intracellular calcium release Log EC50 (human α1A‐adrenoceptor [11]) | Intracellular calcium release % ionomycin (human α1A‐adrenoceptor [11]) | also measured
COc1ccccc1N1CCN(CC2CN3C(=O)N(C)c4ccccc4C3=N2)CC1 (stereo not shown) [2‐MPMDQ] | No response | No response | 3.1 ± 1.5% | 64.0 ± 2.1% | No response | No response | 13.6 ± 3.7% | −7.37 ± 0.04 | No response | No response | −9.06 ± 0.07 | −7.69 ± 0.08 | 19.7 ± 2.0% | –
O=C1Nc2ccccc2C2=NC(CN3CCN(c4ccccc4)CC3)CN12 (stereo not shown) [2‐PMDQ] | No response | No response | – | 57.6 ± 2.8% | No response | No response | 10.4 ± 3.4% | −6.95 ± 0.05 | – | No response | −8.19 ± 0.09 | −7.63 ± 0.13 | 16.6 ± 1.8% | Intracellular calcium release Log EC50 (human α1B‐adrenoceptor [2]; given as log EC50 (negative numbers)): No response; Intracellular calcium release % ionomycin (human α1B‐adrenoceptor [2]; maximal response as % of 10 µM ionomycin response): No response
COc1ccccc1N1CCN(CCN2C(=O)c3ccccc3C(C)(C)C2=O)CC1 [ARC239] | −8.41 ± 0.23 | 1.2 ± 0.2% | 4.8 ± 1.7% | 60.5 ± 1.4% | No response | No response | 29.2 ± 3.8% | −8.15 ± 0.07 | No response | – | −9.35 ± 0.08 | −7.99 ± 0.19 | 20.8 ± 2.0% | ERK1/2-phosphorylation % PDBu ([12]; maximal response as % of PDBu (10μM) response, mean ± s.e.m.): No response; cAMP accumulation (in presence of forskolin) Log EC50 ([13]; in presence of forskolin): No response
CC1c2ccccc2CN1CC1=NCCN1 (stereo not shown) [BRL44408] | −6.27 ± 0.17 | 4.7 ± 0.5% | 13.7 ± 6.5% | – | – | – | 77.4 ± 4.1% | −4.68 ± 0.07 | – | −6.43 ± 0.09 | −5.92 ± 0.09 | −7.24 ± 0.10 | 36.5 ± 5.4% | Log KD α1D, ^3H‐prazosin whole cell binding (single site or first, higher affinity component) [3]: −5.06 ± 0.05; ERK1/2‐phosphorylation % PDBu at 100 µM [4, 16]: 47.4 ± 5.7%; Intracellular calcium release % Ionomycin at 100 µM [5, 16]: 4.5 ± 2.1%; Affinity selectivity ratio α1A vs α1B (human α1A‐adrenoceptor [14]): 17.4 fold; ERK1/2‐phosphorylation Log EC50 (human α1A‐adrenoceptor [6]; 2–4 min, ^b also active in parent CHO cells): −7.03 ± 0.14; ERK1/2‐phosphorylation % PDBu at 100 µM (human α1B‐adrenoceptor [8]; [16]): 47.0 ± 7.0%; cAMP accumulation (in presence of forskolin) Fold increase (human α1A‐adrenoceptor [9]; fold increase of the forskolin response): 1.62 ± 0.08 fold; Log efficacy ratio KD /EC50 (human α1A‐adrenoceptor [11]; binding KD and calcium EC50): 1.32; 3H‐prazosin binding Log KD ([15]; CHO‐α1D cells, whole‐cell binding (from Table 1), log values given negative): −5.06; Affinity selectivity ratio α1B vs α1D ([15]; higher affinity for α1D than α1B): 2.4 fold; ERK1/2-phosphorylation % PDBu at 100μM ([12]; response at 100μM only, EC50 not obtainable, % of PDBu (10μM)): 17.6 ± 8.1%; cAMP accumulation (in presence of forskolin) % forskolin-stim cAMP at 100μM ([13]; response at 100μM only, EC50 not obtainable, % of forskolin-stimulated cAMP): 77.6 ± 2.3%
